Test results as given in patent US9487488B2, “Sulfonamide compound” (MITSUBISHI TANABE PHARMA CORPORATION, priority 2012, dated 2016).

Target: human TRPM8 (Homo sapiens (Human), UniProt Q7Z2W7)
Assay: TRPM8 inhibition assay (menthol-induced calcium influx, FDSS)
Assay type: cell-based
Settings: HEK293 cells stably expressing human TRPM8; 100 μmol/L menthol; Fura-2AM calcium signal; read-out: TRPM8 Blocking Test (IC50/nmol/L)
Procedure: The functional activity of a test compound was determined by measuring change in intracellular calcium concentration using a calcium sensitive fluorescent dye. The change in fluorescent signal was measured by the cell imaging technology by Hamamatsu Photonics's Functional Drug Screening System (FDSS).
HEK293 cells stably expressing human TRPM8 were grown in a flask. On assay day, the culture medium was removed from the flask, and cells were washed with phosphate-buffered saline (PBS) and harvested with PBS containing 2 mmol/L of ethylenediaminetetraacetic acid disodium salt (EDTA-2Na). […] Subsequently, suspended 20,000 to 50,000 cells per well were incubated with a test compound (at varying concentrations) in each well at 37° C. for 20 minutes. Change in intracellular calcium concentration evoked by 100 μmol/L of menthol was measured for 2 minutes using FDSS. […] The concentration-response curve was generated using the average of quadruplicate wells for each data point.

Chain of human TRPM8 (Q7Z2W7 whole entry): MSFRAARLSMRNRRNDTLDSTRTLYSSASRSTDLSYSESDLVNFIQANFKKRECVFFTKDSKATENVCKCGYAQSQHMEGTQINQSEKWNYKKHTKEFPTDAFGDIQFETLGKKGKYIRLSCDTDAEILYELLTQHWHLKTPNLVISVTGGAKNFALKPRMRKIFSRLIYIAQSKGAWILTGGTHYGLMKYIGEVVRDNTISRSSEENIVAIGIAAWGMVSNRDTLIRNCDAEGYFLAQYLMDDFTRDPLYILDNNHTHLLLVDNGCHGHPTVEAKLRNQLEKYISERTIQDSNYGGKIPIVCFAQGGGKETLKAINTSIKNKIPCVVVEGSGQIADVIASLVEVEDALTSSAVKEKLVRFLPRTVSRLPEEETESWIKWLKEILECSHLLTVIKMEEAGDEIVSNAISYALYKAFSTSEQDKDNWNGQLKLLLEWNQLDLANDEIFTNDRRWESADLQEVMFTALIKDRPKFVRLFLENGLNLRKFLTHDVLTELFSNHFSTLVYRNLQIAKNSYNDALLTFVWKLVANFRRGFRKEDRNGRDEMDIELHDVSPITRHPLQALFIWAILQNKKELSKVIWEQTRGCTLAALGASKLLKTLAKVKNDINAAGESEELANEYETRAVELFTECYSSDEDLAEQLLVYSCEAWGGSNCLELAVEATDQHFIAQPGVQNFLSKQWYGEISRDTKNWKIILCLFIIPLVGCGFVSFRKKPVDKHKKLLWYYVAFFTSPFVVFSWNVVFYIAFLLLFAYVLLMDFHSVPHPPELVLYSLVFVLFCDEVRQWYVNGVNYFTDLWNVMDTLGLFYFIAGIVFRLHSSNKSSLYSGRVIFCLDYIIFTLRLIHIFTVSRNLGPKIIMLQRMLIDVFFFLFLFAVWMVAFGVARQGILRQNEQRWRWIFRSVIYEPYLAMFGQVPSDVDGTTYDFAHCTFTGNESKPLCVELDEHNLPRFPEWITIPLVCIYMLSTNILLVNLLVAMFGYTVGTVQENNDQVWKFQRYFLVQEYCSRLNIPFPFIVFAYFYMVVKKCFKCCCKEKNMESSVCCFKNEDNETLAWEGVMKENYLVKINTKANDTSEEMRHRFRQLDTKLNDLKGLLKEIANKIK

Structure (SMILES) | IC50
Cc1cc(S(=O)(=O)N(Cc2ccc(C(F)(F)F)cn2)c2ncc3ccccc3c2C2CC2)ccc1C(=O)O [Example 37, 4-[((4-cyclopropylisoquinolin-3-yl){[5-(trifluoromethyl)pyridin-2-yl]methyl}amino)sulfonyl]-2-methylbenzoic acid] | 9.5 nmol/L
Cc1cc(C(=O)O)ccc1S(=O)(=O)N(Cc1ccc(OC(F)(F)F)cc1)c1ncc2ccccc2c1C1CC1 [Example 38, 4-({(4-cyclopropylisoquinolin-3-yl)[4-(trifluoromethoxy)benzyl]amino}sulfonyl)-3-methylbenzoic acid] | 0.7 nmol/L
COCc1cc(S(=O)(=O)N(Cc2ccc(OC(F)(F)F)cc2)c2ncc3ccccc3c2C2CC2)ccc1C(=O)O [Example 39, 4-({(4-cyclopropylisoquinolin-3-yl)[4-(trifluoromethoxy)benzyl]amino}sulfonyl)-2-(methoxymethyl)benzoic acid] | 1.4 nmol/L
Cc1cc(S(=O)(=O)N(Cc2ccc(OC(F)(F)F)cc2)c2nc(C3CC3)c3ccccc3c2C)ccc1C(=O)O [Example 40, 4-({(1-cyclopropyl-4-methylisoquinolin-3-yl)[4-(trifluoromethoxy)benzyl]amino}sulfonyl)-2-methylbenzoic acid] | 6.5 nmol/L
CNc1cc(S(=O)(=O)N(Cc2ccc(OC(F)(F)F)cc2)c2ncc3ccccc3c2C2CC2)ccc1C(=O)O [Example 41, 4-({(4-cyclopropylisoquinolin-3-yl)[4-(trifluoromethoxy)benzyl]amino}sulfonyl)-2-(methylamino)benzoic acid] | 1.1 nmol/L
Cc1cc(S(=O)(=O)N(Cc2ccc(OC(F)(F)F)cc2)c2ncc3ccccc3c2C2CC2)cc(F)c1C(=O)O [Example 42] | 1.5 nmol/L
O=C(O)c1ccc(S(=O)(=O)N(Cc2ccc(OC(F)(F)F)cc2)c2ncc3ccccc3c2C2CC2)cc1C1CC1 [Example 43] | 10.1 nmol/L
CC(C)c1cc(S(=O)(=O)N(Cc2ccc(OC(F)(F)F)cc2)c2ncc3ccccc3c2C2CC2)ccc1C(=O)O [Example 44] | 5.6 nmol/L
CN(C)c1cc(S(=O)(=O)N(Cc2ccc(OC(F)(F)F)cc2)c2ncc3ccccc3c2C2CC2)ccc1C(=O)O [Example 45] | 2.9 nmol/L
Cc1cc(S(=O)(=O)N(Cc2ccc(OC(F)(F)F)cc2)c2ncc3ccccc3c2C(F)(F)F)ccc1C(=O)O [Example 46] | 3.3 nmol/L
O=C(O)c1ccc(S(=O)(=O)N(Cc2ccc(OC(F)(F)F)cc2)c2ncc3ccccc3c2C2CC2)cc1Cl [Example 47] | 3.8 nmol/L
O=C(O)c1ccc(S(=O)(=O)N(Cc2ccc(OC(F)(F)F)cc2)c2ncc3ccccc3c2C2CC2)cc1Br [Example 48] | 6.3 nmol/L
O=C(O)c1ccc(S(=O)(=O)N(Cc2ccc(OC(F)(F)F)cc2)c2ncc3ccccc3c2C2CC2)cc1C(F)(F)F [Example 49] | 18.1 nmol/L
COc1cc(S(=O)(=O)N(Cc2ccc(OC(F)(F)F)cc2)c2ncc3ccccc3c2C2CC2)ccc1C(=O)O [Example 50] | 11.7 nmol/L
Cc1cc(S(=O)(=O)N(Cc2ccc(OC(F)(F)F)cc2)c2ncc3ccccc3c2C2CC2)cc(C)c1C(=O)O [Example 51] | 10.9 nmol/L
O=C(O)c1ccc(S(=O)(=O)N(Cc2ccc(OC(F)(F)F)cc2)c2ncc3ccccc3c2C2CC2)cc1F [Example 52] | 1 nmol/L
CCc1cc(S(=O)(=O)N(Cc2ccc(OC(F)(F)F)cc2)c2ncc3ccccc3c2C(F)(F)F)ccc1C(=O)O [Example 53] | 3 nmol/L
CCc1cc(S(=O)(=O)N(Cc2ccc(OC(F)(F)F)cc2)c2ncc3ccccc3c2C2CC2)ccc1C(=O)O [Example 54] | 2.1 nmol/L
O=C(O)c1ccc(S(=O)(=O)N(Cc2ccc(OC(F)(F)F)cc2)c2ncc3ccccc3c2C2CC2)cc1-c1ccccc1 [Example 55] | 13.6 nmol/L
CC(C)c1cc(S(=O)(=O)N(Cc2ccc(OC(F)(F)F)cc2)c2ncc3ccccc3c2C(F)(F)F)ccc1C(=O)O [Example 56] | 6.6 nmol/L
CCCc1cc(S(=O)(=O)N(Cc2ccc(OC(F)(F)F)cc2)c2ncc3ccccc3c2C2CC2)ccc1C(=O)O [Example 57] | 2.5 nmol/L
O=C(O)c1ccc(S(=O)(=O)N(Cc2ccc(OC(F)(F)F)cc2)c2ncc3ccccc3c2C2CC2)cc1N1CCCC1 [Example 58] | 4.6 nmol/L
O=C(O)c1ccc(S(=O)(=O)N(Cc2ccc(OC(F)(F)F)cc2)c2ncc3ccccc3c2C2CC2)cc1N1CCCCC1 [Example 59] | 10.3 nmol/L
O=C(O)c1ccc(S(=O)(=O)N(Cc2ccc(OC(F)(F)F)cc2)c2ncc3ccccc3c2C2CC2)cc1N1CCOCC1 [Example 60] | 19.6 nmol/L
